According to patent US12655142B2 (Merck Patent GmbH, priority 2019, dated 2026):

Tests used:
[1] = target: T1, c-Kit(V654A) (Homo sapiens, UniProt P10721, V654A); assay: c-Kit(V654A) assay (33P-ATP filter binding kinase assay); format: biochemical; details: recombinant human c-Kit aa 544-end V654A, ATP 200 μM
T1 construct: recombinant human c-Kit, amino acids 544-end containing the V654A mutation; GST (N)
How it was run: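 Radiometric filter-binding read-out: substrate 33P incorporation counted by scintillation after P30 filtermat washes in 75 mM phosphoric acid and methanol. Enzyme: N-GST recombinant human c-Kit aa 544-end carrying V654A.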

[2] = Determination of Efflux-Ratio (ER) in Caco-2 cells; details: human, Caco-2, pH 7.4
[3] = target: T2, GIST430 cell line expressing constitutive active cKIT receptor tyrosine kinase (Δ560-576 deletion) (Homo sapiens, UniProt P10721, DEL560-576); assay: Cellular cKIT autophosphorylation (phospho-Y307-cKIT, Luminex bead assay) in GIST430 cells; format: cell-based; details: cKIT autophosphorylation, GIST430 cells, compounds 45 min; read-out: GIST 430 IC50
T2 construct: endogenous in cells; host or cells: GIST430 cells
How it was run: (§1)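 Phospho-Y307 cKIT in lysates was measured on a Luminex bead assay, with total-cKIT capture overnight at 4 °C and phosphospecific plus PE secondary detection. Cells had 45 min exposure to a compound dilution series the day after plating: GIST430 (Δ560-576) or GIST430/654 (Δ560-576/V654A, grown with 100 nM imatinib). IC50 values are relative to 0.3% DMSO-treated cells.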

[4] = target: T3, GIST430/654 cell line expressing mutated constitutively active cKIT receptor tyrosine kinase (Δ560-576 deletion and V654A point mutation) (Homo sapiens, UniProt P10721, DEL560-576/V654A); assay: Cellular cKIT autophosphorylation (phospho-Y307-cKIT, Luminex bead assay) in GIST430/654 cells; format: cell-based; details: compounds 45 min, read-out: GIST 430/654 IC50
T3 construct: endogenous in cells; host or cells: GIST430/654 cells
How it was run: as §1

[5] = Determination of solubility; details: 20 mM Sorensen phosphate buffer, pH 7.4, aqueous buffer, kinetic from dmso stock
Procedure: (§2) In a 96 well filtration plate, 2 μL of a 10 mM solution of the test compound in DMSO is added to 98 μL of 20 mM Sorensen phosphate buffer with pH 7.4. The mixture is incubated at room temperature for 120 min while agitating at 250 rpm followed by centrifugation at 2500 rpm for 3 min. After dilution by a factor of 2, the concentration of the test compound is determined using HPLC/UPLC with detection at a suitable wavelength and by comparison to a corresponding compound standard.

[6] = pH 7.4
Procedure: as §2

T3 sequence (P10721 with tags, fused parts or gaps DEL560-576/V654A): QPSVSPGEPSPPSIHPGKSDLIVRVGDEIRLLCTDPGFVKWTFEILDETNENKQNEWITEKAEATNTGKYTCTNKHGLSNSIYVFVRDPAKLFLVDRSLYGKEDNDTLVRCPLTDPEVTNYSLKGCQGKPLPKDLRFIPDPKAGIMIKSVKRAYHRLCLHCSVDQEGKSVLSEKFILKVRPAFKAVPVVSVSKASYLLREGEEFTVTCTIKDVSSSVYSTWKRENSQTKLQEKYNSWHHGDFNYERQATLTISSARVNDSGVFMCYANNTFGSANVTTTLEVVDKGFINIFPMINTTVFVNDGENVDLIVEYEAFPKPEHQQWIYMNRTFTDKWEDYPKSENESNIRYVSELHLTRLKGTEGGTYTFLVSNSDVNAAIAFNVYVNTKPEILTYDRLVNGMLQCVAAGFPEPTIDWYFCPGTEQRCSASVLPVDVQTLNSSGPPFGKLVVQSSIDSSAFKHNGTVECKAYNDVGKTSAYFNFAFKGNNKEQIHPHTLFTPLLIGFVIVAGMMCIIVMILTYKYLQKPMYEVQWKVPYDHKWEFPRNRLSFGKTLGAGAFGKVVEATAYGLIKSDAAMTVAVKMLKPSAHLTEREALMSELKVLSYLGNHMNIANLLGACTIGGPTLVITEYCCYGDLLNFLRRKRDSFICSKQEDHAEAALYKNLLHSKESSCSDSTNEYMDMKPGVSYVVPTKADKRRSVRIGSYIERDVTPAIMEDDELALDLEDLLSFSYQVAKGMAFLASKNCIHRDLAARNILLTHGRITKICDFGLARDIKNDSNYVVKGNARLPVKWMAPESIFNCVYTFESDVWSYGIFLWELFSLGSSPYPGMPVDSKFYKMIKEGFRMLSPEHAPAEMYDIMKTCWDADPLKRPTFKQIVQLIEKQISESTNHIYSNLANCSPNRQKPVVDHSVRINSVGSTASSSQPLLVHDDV
T1 sequence (P10721 544-976 V654A): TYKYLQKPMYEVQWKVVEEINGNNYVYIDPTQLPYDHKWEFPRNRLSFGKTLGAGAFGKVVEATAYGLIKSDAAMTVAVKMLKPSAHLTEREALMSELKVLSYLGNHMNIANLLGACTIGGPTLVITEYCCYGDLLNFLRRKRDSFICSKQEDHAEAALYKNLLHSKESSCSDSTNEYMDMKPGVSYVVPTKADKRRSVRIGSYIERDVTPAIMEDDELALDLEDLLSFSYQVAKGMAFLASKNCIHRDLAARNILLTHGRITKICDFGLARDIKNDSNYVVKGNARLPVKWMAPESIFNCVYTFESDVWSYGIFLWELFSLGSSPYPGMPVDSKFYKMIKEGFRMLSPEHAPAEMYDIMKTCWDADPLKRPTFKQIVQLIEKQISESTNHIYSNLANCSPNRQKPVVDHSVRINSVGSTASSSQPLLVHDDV
T2 sequence (P10721 with tags, fused parts or gaps DEL560-576): as the sequence (P10721 with tags, fused parts or gaps DEL560-576/V654A) above, with A612V counted along it

| IC50 [1] | efflux ratio at 2 h, 1 μM [2] | IC50 [3] | IC50 [4] | solubility at 120 min [5] | solubility [6] | SMILES |
| --- | --- | --- | --- | --- | --- | --- |
| 6.4 nM | < 15 | 6.4 nM | 120 nM | ≥ 25 µM |  | F[C@@H]1CCN(c2ccc(CNc3cc(-c4cnc5ccccn45)ncn3)cn2)C1 [A153, N-({6-[(3R)-3-fluoropyrrolidin-1-yl]pyridin-3-yl}methyl)-6-{imidazo[1,2-a]pyridin-3-yl}pyrimidin-4-amine] |
| 7.3 nM | > 50 |  | 210 nM | ≥ 25 µM |  | Cn1cc(-c2ccc(CNc3cc(-c4cnc5cc(OCCN6CCN7CCC6C7)ccn45)ncn3)cc2)cn1 (stereo not drawn) [A212, (6-{7-[2-(1,4-diaza-bicyclo[3.2.1]oct-4-yl)-ethoxy]-imidazo[1,2-a]pyridin-3-yl}-pyrimidin-4-yl)-[4-(1-methyl-1H-pyrazol-4-yl)-benzyl]-amine] |

Continued, molecule first:

| SMILES | IC50 [1] | efflux ratio at 2 h, 1 μM [2] | IC50 [3] | IC50 [4] | solubility at 120 min [5] | solubility [6] |
| --- | --- | --- | --- | --- | --- | --- |
| Cn1ncc(-c2ccc(CNc3cc(-c4cnc5cc(OCCCN6CCCC6)ccn45)ncn3)cc2)n1 [A84, [4-(2-methyl-2H-[1,2,3]triazol-4-yl)-benzyl]-{6-[7-(3-pyrrolidin-1-yl-propoxy)-imidazo[1,2-a]pyridin-3-yl]-pyrimidin-4-yl}-amine] | 2.8 nM | < 15 | 2.4 nM | 45 nM | ≥ 25 µM |  |
| Cn1ncc(-c2ccc(CNc3cc(-c4cnc5cc(OCCCN6CCC6)ccn45)ncn3)cc2)n1 [A120, {6-[7-(3-azetidin-1-yl-propoxy)-imidazo[1,2-a]pyridin-3-yl]-pyrimidin-4-yl}-[4-(2-methyl-2H-[1,2,3]triazol-4-yl)-benzyl]-amine] | 2.9 nM | < 15 | 2.3 nM | 52 nM | ≥ 25 µM |  |
| Cn1cc(-c2ccc(CNc3cc(-c4cnc5cc(OCCN6CCCC6)ccn45)ncn3)cc2)cn1 [A60, [4-(1-methyl-1H-pyrazol-4-yl)-benzyl]-{6-[7-(2-pyrrolidin-1-yl-ethoxy)-imidazo[1,2-a]pyridin-3-yl]-pyrimidin-4-yl}-amine] | 8 nM | < 15 | 4.9 nM | 70 nM | ≥ 25 µM |  |
| Cn1cc(-c2ccc(CNc3cc(-c4cnc5cc(OCCCN6CCCC6)ccn45)ncn3)cc2)cn1 [A75, [4-(1-methyl-1H-pyrazol-4-yl)-benzyl]-{6-[7-(3-pyrrolidin-1-yl-propoxy)-imidazo[1,2-a]pyridin-3-yl]-pyrimidin-4-yl}-amine] | 8.5 nM | < 15 | 2.9 nM | 59 nM | ≥ 25 µM |  |
| Cn1cc(-c2ccc(CNc3cc(-c4cnc5cc(OCCCN6CCC6)ccn45)ncn3)cc2)cn1 [A102] | 9.8 nM |  | 3 nM | 46 nM |  | at least 25 μM |
